Results from US12410178B2, “Small cationic ortho-5,15-di-heteroaryl-porphyrin derivatives and their applications in photoinactivation of microorganisms” (UNIVERSIDADE DE COIMBRA, priority 2019, dated 2025).

Assays:
[1] = Optical absorption, molar absorption coefficient; format: physicochemical; conditions: water with 9% dimethylsulfoxide
Method: Optical Absorption: The ultra-violet visible optical absorption (UV-vis) spectra used in the control of the synthesis were recorded on Hitachi U-2001 or Shimadzu 2100 spectrophotometers using spectroscopic grade solvents. The UV-Vis-NIR optical absorption was recorded with an Agilent Cary5000 UV-Vis-NIR Spectrophotometer in the determination of the molar absorption coefficient and with Shimadzu UV-2100 spectrometer in routine measurements. The absorption spectra were recorded in the wavelengths from 300 nm up to 800 nm. Molar absorption coefficients were determined by using Beer-Lambert's law. For each compound, a minimum of 6 solutions were prepared in concentrations ranging from 10^−7 to 10^−6 M, giving absorbance values between 0.1 and 1.
The absorptivities of the compounds and other photophysical and photobiological properties were measured as described in the Materials and Methods. […] This is indicative of negligible aggregation between the molecules, which exist mostly as monomers at the studied concentrations in the selected solvents. […] The same table also presents the fluorescence quantum yield (ΦF), singlet oxygen generation (ΦΔ) and the logarithm of the n-octanol:water partition coefficient (log POW). […]

[2] = Singlet oxygen quantum yield; format: physicochemical; conditions: excitation 355 nm, reference phenalenone
From the text: Singlet Oxygen Quantum Yield: The experiments were run at room temperature. The solutions were excited at 355 nm using a Nd-YAG laser (Spectra-Physics Quanta-Ray GRC-130) and the phosphorescence of singlet oxygen collected at 1270 nm in a Hamamatsu R5509-42 photomultiplier, cooled to 193 K in a liquid nitrogen chamber, after selection of the wavelength with a monochromator with 600 lines grading. A Newport filter model 10LWF-1000-B was used in the emission to avoid scattering and fluorescence. Phenalenone was used as a reference of singlet oxygen generator, ΦΔ^Ref=0.98. Extrapolating to time-zero the decays of the singlet molecular oxygen emissions measured for sample and the reference solutions at a given laser intensity, we obtained a relation between emission intensities as a function of laser intensity, that is identical to the relation between the singlet molecular oxygen quantum yields. The singlet oxygen quantum yields were obtained by comparing the linear dependence between and the energy of the laser pulse for both the sample and the reference for the same absorption of sample and reference at the excitation wavelength, taking into account the singlet oxygen quantum yield of phenalenone.

[3] = system: Staphylococcus aureus methicillin-resistant (MRSA) strain Sa1CHUC; assay: PDI phototoxicity towards multidrug-resistant planktonic bacteria (CFU); format: cell-based; conditions: 60 min incubation, 1.36 J/cm^2 at 415 nm
Method: (§1) Phototoxicity towards bacteria was evaluated in vitro. Assays were performed with the following bacteria: Escherichia coli ATCC 25922, Pseudomonas aeruginosa ATCC 27853 and Staphylococcus aureus ATCC 29213. Further assay were performed with clinical antibiotic-resistant strains from the Centro Hospitalar da Universidade de Coimbra, namely Staphylococcus aureus methicillin-resistant (MRSA) strain Sa1CHUC recovered from the skin of a burnt patient (resistant to all beta-lactamic antibiotics), and Acinetobacter baumannii 141HUC isolated from an exudate of a burn wound and highly resistant to all beta-lactamics (penicillins, cephalosporins, monobactams and carbapenems), quinolones and the aminoglycosides gentamicin and netilmicin. The planktonic bacteria cells were cultured in Mueller Hinton (MH) agar (Sigma Aldrich) at 37° C. overnight. Cell density was adjusted to the 0.5 McFarland standard in sterile water, which corresponds to approximately 1.5×10^8 CFU/mL. For PDI experiments cell suspensions of bacteria were incubated with various concentrations of the photosensitizers for 1 h, in the dark, at room temperature, using a 96 well plate. Then, the plate was illuminated with a blue light LED (420 nm, 4 mJ/s). Cells incubated with photosensitizers in the dark were covered with aluminum foil for the same time as the PDI groups (1 h). After illumination (or dark incubation) samples were shaken, diluted in PBS and mixed. Aliquots were taken from each well and streaked in MH agar in duplicate for CFU determination and incubated for 37° C./18-24 h in the dark. After 24 h, the colonies were counted and CFU determined. The experiments were performed in triplicate. Statistical analysis was performed with GraphPad Prism 6.
(§2) This example describes the evaluation of in vitro phototoxicity against multidrug-resistant Gram-positive and Gram-negative bacteria of the cationic ortho-5,15-di-heteroaryl porphyrin with Formula (IIa). Assays were performed with clinical resistant strains from the Centro Hospitalar da Universidade de Coimbra, namely Staphylococcus aureus methicillin-resistant (MRSA) strain Sa1CHUC collected from the skin of a burnt patient (resistant to all beta-lactamic antibiotics), and Acinetobacter baumannii 141HUC highly resistant all beta-lactamics, including carbapenems, quinolones, gentamicin and netilmicin, isolated from an exudate of a burn wound. The phototoxicity was measured according to the description in the Materials and Methods section. […] There is a dose-phototoxicity response of the test compound relative to the non-treated control. FIG. 9 illustrates the CFU reduction as a function of photosensitizer concentration for the light dose of 1.36 J/cm^2 at 415 nm.

[4] = system: Acinetobacter baumannii 141HUC; assay: as above; format: cell-based; conditions: 60 min incubation, 1.36 J/cm^2 at 415 nm
Method: as §1, §2

[5] = n-Octanol:PBS partition ratio (modified shake-flask); format: physicochemical; conditions: equal volumes
From the text: n-Octanol:PBS partition ratio: a modification of the shake-flask method was employed to determine the equilibrium concentrations of the photosensitizer in n-octanol and in phosphate-buffered saline (PBS) mixed in equal volumes, using the typical fluorescence band of the same photosensitizer and the ratio of the fluorescences after dilution by the same factor with dimethylsulfoxide.

[6] = Photobleaching / photodecomposition experiments; format: physicochemical
Method: Photobleaching experiments: Photodecomposition experiments were made dissolving the photosensitizers in water with 9% dimethylsulfoxide. A volume of 3 mL was placed in a cuvette and irradiated ensuring that all the light hits the solution. The porphyrins were irradiated using a LED light with emission at 415 nm and an effective output power of 0.27 mW. Photodecomposition quantum yield (Φpd) is defined as the ratio between the rate of disappearance of photosensitizer molecules vd and the rate of absorption of photons vp.
The intensity of its longest wavelength absorption band at 622 nm decreased by less than ΔA=0.001 after 15,000 second of illumination corresponding to an effective absorption of ca. 4 J. This places an upper limit of 0.001 to the photodecomposition quantum yield.

Cn1cc[n+](C)c1C1=C2C=CC3=[N+]2[Zn@]24[n]5c(ccc51)C=C1C=CC(=[N+]12)C(c1n(C)cc[n+]1C)=c1ccc([n]14)=C3 [Formula (IIa), 5,15-bis(1,3-dimethylimidazol-2-yl)porphyrinate zinc (II) diiodide]
ε(λ)/10^3 molar absorption coefficient ([1]; at 407 nm): >20 10^3 M^−1 cm^−1
λ (most intense absorption band) [1]: 407 nm
ΦΔ singlet oxygen generation quantum yield [2]: 0.75
reduction of the number of bacterial CFU (in words) ([3]; 1 μM): dramatic decrease in CFU
log CFU at 1 μM, S. Aureus MRSA ([3]; planktonic): 7
reduction of the number of bacterial CFU (in words) ([4]; 1 μM): dramatic decrease in CFU
log CFU at 1 μM, Acinetobacter 141Hu ([4]; planktonic): 7
log Pow [5]: −1.16
photodecomposition quantum yield ([6]; LED 415 nm, water with 9% dimethylsulfoxide): ≤ 0.001
decrease ΔA of longest wavelength absorption band at 622 nm ([6]; after 15,000 second of illumination, effective absorption ca. 4 J): < 0.001
